{"source": "paper PMC9800952", "about": "(Asian Journal of Pharmaceutical Sciences, 2022)", "origin": "cited, not measured here", "details": "pH 7", "data": [{"smiles": "CC(C)OC(=O)CCC/C=C\\C[C@@H]1[C@@H](CC[C@@H](O)CCc2ccccc2)[C@H](O)C[C@@H]1O", "note": "[latanoprost]", "values": [{"measurement": "LogD (pH7)", "result": 4.28}]}]}
